The compounds below were run against ATX (Homo sapiens (Human), UniProt Q13822) (assay: ATX enzyme inhibition assay (Amplex UltraRed/choline oxidase/HRP, 16:0 Lyso PC substrate)). Settings: assay buffer pH 7.5; read-out: IC50 (nM) pH 7.5.
Type: biochemical
Protocol: All compounds were prepared as a 10 mM DMSO stock solution.
Solutions at pH 8.5 and pH 7.5 were prepared respectively with the following formulations:
All compounds, including the positive control compound, were diluted 5-fold from 10 mM to 2 mM with DMSO in the first step. The mixture was then diluted to 100 μM with 1× assay buffer.
3. Separate Detection of Compounds with 1× Assay Buffer at Two pH Values:
a) 5 μL of 10× compound diluent was added to a 384-well plate (Greiner 781209) using a motorized pipette (see the “experimental preparation” step). 5 μL of 1× assay buffer containing 5% DMSO was added to both negative and positive control wells. The plate was centrifuged at 300 rpm for 1 minute at room temperature.
b) 2× ATX ([…]) was prepared with 1× assay buffer, and 25 μL of 2× ATX was added to the plate using a motorized pipette. 25 μL of 1× assay buffer was added to the negative control wells and 25 μL of 2× ATX was added to the positive control wells. The plate was centrifuged at 300 rpm for 1 minute at room temperature.
The plate was incubated at room temperature for 10 minutes.
c) 2.5× working solution containing Amplex UltraRed reagent (125 μM), HRP (2.5 U/mL), choline oxidase (1.25 U/mL), and 16:0 Lyso PC (75 μM) was prepared with 1× assay buffer. 20 μL of 2.5× working solution was added to all reaction wells using a motorized pipette. The plate was centrifuged at 300 rpm for 1 minute at room temperature.
d) The plate was detected by SpectraMax with the following procedures: fluorescence mode; excitation at 550 nm; emission at 590 nm; kinetics; read once every 2 minutes; read continuously for 60 minutes.
The calculation formula of % inhibition (i.e., % inhibition rate) was as follows: […]
V0: X-axis is taken as 0 to 30 minutes, Y-axis is taken as fluorescence readings, and the slope corresponding to the straight line fitted by the software GraphPad Prism 8 is the initial response rate.
V0max: Average V0 of the positive control wells in the plate.
V0min: Average V0 of the negative control wells in the plate.
The IC50 of the compounds was calculated from a nonlinear regression line (dose-initial response rate) fitted by % inhibition and log value of compound concentration using the software GrahPad Prism 8.

| SMILES | IC50 [nM] |
| --- | --- |
| CN(c1nc(-c2ccc(F)cc2)c(C#N)s1)c1c2c(nc3c(F)cc(N4CCN(CC(=O)N5CC(F)(F)C5)CC4)cc13)CCC2 [Example A15] | 656 |
| CN(c1nc(-c2ccc(F)cc2)c(C#N)s1)c1c2c(nc3c(F)cc(N4CC5(CN(C(=O)[C@@H]6CCOC6)C5)C4)cc13)CCO2 [Example C11] | 132 |

Same assay, conditions: assay buffer pH 8.5; read-out: IC50 (nM) pH 8.5

| SMILES | IC50 [nM] |
| --- | --- |
| CN(c1nc(-c2ccc(F)cc2)c(C#N)s1)c1c2c(nc3c(F)cc(N4CC5(CN(C(=O)[C@H]6CCOC6)C5)C4)cc13)[C@@H](O)CC2 (single isomer, unassigned) [Example E5-b] | 23.7 |
| C[C@@H]1CN(CC(=O)N2CC(O)C2)CCN1c1cc(F)c2nc3c(c(N(C)c4nc(-c5ccc(F)cc5)c(C#N)s4)c2c1)CC[C@@H]3O (single isomer, unassigned) [Example E6-a] | 18.3 |
| C[C@H]1CN(CC(=O)N2CC(O)C2)CCN1c1cc(F)c2nc3c(c(N(C)c4nc(-c5ccc(F)cc5)c(C#N)s4)c2c1)CC[C@H]3O (single isomer, unassigned) [Example E7-b] | 18.9 |
| C[C@H]1CN(c2cc(F)c3nc4c(c(N(C)c5nc(-c6ccc(F)cc6)c(C#N)s5)c3c2)CC[C@H]4O)CCN1CC(=O)N1CC(O)C1 (single isomer, unassigned) [Example E8-b] | 19.4 |
| CN(c1nc(-c2ccc(F)cc2)c(C#N)s1)c1c2c(nc3c(F)cc(N4CC5(CN(C(=O)[C@@H]6CCOC6)C5)C4)cc13)[C@H](O)CC2 (single isomer, unassigned) [Example E13-b] | 20.2 |
| CN(c1nc(-c2ccc(F)cc2)c(C#N)s1)c1c2c(nc3c(F)cc(N4CC5(CN(C(=O)C6CCOCC6)C5)C4)cc13)[C@@H](O)CC2 (single isomer, unassigned) [Example E14-a] | 16.6 |
| CN(c1nc(-c2ccc(F)cc2)c(C#N)s1)c1c2c(nc3c(F)cc(N4CC5(CN(C(=O)C6CCOCC6)C5)C4)cc13)[C@H](O)CC2 (single isomer, unassigned) [Example E14-b] | 14.7 |
| CN(c1nc(-c2ccc(F)cc2)c(C#N)s1)c1c2c(nc3c(F)cc(N4CC5(CN(C(=O)C6(O)CCOCC6)C5)C4)cc13)[C@H](O)CC2 (single isomer, unassigned) [Example E15-b] | 18.5 |
| CN(c1nc(-c2ccc(F)cc2)c(C#N)s1)c1c2c(nc3c(F)cc(N4CC5(CN(C(=O)C(C)(C)O)C5)C4)cc13)[C@H](O)CC2 (single isomer, unassigned) [Example E16-b] | 23 |
| CN(c1nc(-c2ccc(F)cc2)c(C#N)s1)c1c2c(nc3c(F)cc(N4CC5(CN(C(=O)N6CCCC6)C5)C4)cc13)[C@@H](O)CC2 (single isomer, unassigned) [Example E17-a] | 22.4 |
| CN(c1nc(-c2ccc(F)cc2)c(C#N)s1)c1c2c(nc3c(F)cc(N4CC5(CN(C(=O)N6CCCC6)C5)C4)cc13)[C@H](O)CC2 (single isomer, unassigned) [Example E17-b] | 21.5 |
| CN1CC[C@H](C(=O)N2CC3(C2)CN(c2cc(F)c4nc5c(c(N(C)c6nc(-c7ccc(F)cc7)c(C#N)s6)c4c2)CC[C@@H]5O)C3)C1 (single isomer, unassigned) [Example E18-a] | 23.4 |
| CN1CC[C@H](C(=O)N2CC3(C2)CN(c2cc(F)c4nc5c(c(N(C)c6nc(-c7ccc(F)cc7)c(C#N)s6)c4c2)CC[C@H]5O)C3)C1 (single isomer, unassigned) [Example E18-b] | 37.1 |
| CN(c1nc(-c2ccc(F)cc2)c(C#N)s1)c1c2c(nc3c(F)cc(N4CC5(CN(C(=O)[C@@H]6COC[C@H]6O)C5)C4)cc13)[C@@H](O)CC2 (single isomer, unassigned) [Example E20-a] | 18.1 |
| CN(c1nc(-c2ccc(F)cc2)c(C#N)s1)c1c2c(nc3c(F)cc(N4CC5(CN(C(=O)[C@@H]6COC[C@H]6O)C5)C4)cc13)[C@H](O)CC2 (single isomer, unassigned) [Example E20-b] | 17 |
| CN(c1nc(-c2ccc(F)cc2)c(C#N)s1)c1c2c(nc3c(F)cc(N4CC5(CN(C(=O)[C@H]6COC[C@@H]6O)C5)C4)cc13)[C@@H](O)CC2 (single isomer, unassigned) [Example E20-c] | 25.7 |
| CN(c1nc(-c2ccc(F)cc2)c(C#N)s1)c1c2c(nc3c(F)cc(N4CC5(CN(C(=O)[C@H]6COC[C@@H]6O)C5)C4)cc13)[C@H](O)CC2 (single isomer, unassigned) [Example E20-d] | 29.2 |
| CN(c1nc(-c2ccc(F)cc2)c(C#N)s1)c1c2c(nc3c(F)cc(N4CCN(CC(=O)N5CC(O)C5)CC4)cc13)C(O)CC2 (stereo not shown) [E1-1] | 21.3 |
| N#Cc1cc(Br)cc(F)c1NC1=CCCC1=O [E1-2] | 18.2 |
| CN(c1nc(-c2ccc(F)cc2)c(C#N)s1)c1c2c(nc3c(F)cc(N4CCN(CC(=O)N5CC(F)(F)C5)CC4)cc13)CCC2 [Example A15] | 134 |
| CN(c1nc(-c2ccc(F)cc2)c(C#N)s1)c1c2c(nc3c(F)cc(N4CC5(CN(CC(=O)N6CC(O)C6)C5)C4)cc13)CCO2 [Example A23] | 75.3 |
| CN(c1nc(-c2ccc(F)cc2)c(C#N)s1)c1c2c(nc3c(F)cc(N4CCN(CC(=O)N5CC(O)C5)CC4)cc13)CCCC2 [Example A27] | 111 |

| SMILES | IC50 [nM] |
| --- | --- |
| CN(c1nc(-c2ccc(F)cc2)c(C#N)s1)c1c2c(nc3c(F)cc(N4CC5(CN(CC(=O)N6CC(CO)C6)C5)C4)cc13)COC2 [Example A28] | 226 |
| CN(c1nc(-c2ccc(F)cc2)c(C#N)s1)c1c2c(nc3c(F)cc(N4CC5(CN(CC(=O)N6CC(CO)C6)C5)C4)cc13)CCO2 [Example A29] | 111 |
| C[C@H]1CN(CC(=O)N2CC(O)C2)CCN1c1cc(F)c2nc3c(c(N(C)c4nc(-c5ccc(F)cc5)c(C#N)s4)c2c1)COC3 [Example A30] | 22.1 |
| C[C@@H]1CN(CC(=O)N2CC(O)C2)CCN1c1cc(F)c2nc3c(c(N(C)c4nc(-c5ccc(F)cc5)c(C#N)s4)c2c1)COC3 [Example A31] | 26.9 |
| C[C@@H]1CN(c2cc(F)c3nc4c(c(N(C)c5nc(-c6ccc(F)cc6)c(C#N)s5)c3c2)COC4)CCN1CC(=O)N1CC(O)C1 [Example A32] | 94.3 |
| C[C@H]1CN(c2cc(F)c3nc4c(c(N(C)c5nc(-c6ccc(F)cc6)c(C#N)s5)c3c2)COC4)CCN1CC(=O)N1CC(O)C1 [Example A33] | 44.6 |
| CN(c1nc(-c2ccc(F)cc2)c(C#N)s1)c1c2c(nc3c(F)cc(N4CC5(CN(CC(=O)N6CC(C)(O)C6)C5)C4)cc13)COC2 [Example A34] | 446 |
| CN(c1nc(-c2ccc(F)cc2)c(C#N)s1)c1c2c(nc3c(F)cc(N4CCN(CC(=O)N5CC(C)(O)C5)CC4)cc13)COC2 [Example A35] | 66.8 |
| CN(c1nc(-c2ccc(F)cc2)c(C#N)s1)c1c2c(nc3c(F)cc(N4CC5(CN(C(=O)[C@@H]6CCOC6)C5)C4)cc13)CCO2 [Example C11] | 61.9 |
| CN(c1nc(-c2ccc(F)cc2)c(C#N)s1)c1c2c(nc3c(F)cc(N4CC5(CN(C(=O)C(C)(C)O)C5)C4)cc13)COC2 [Example C21] | 49.1 |
| CN(c1nc(-c2ccc(F)cc2)c(C#N)s1)c1c2c(nc3c(F)cc(N4CC5(CN(C(=O)C6(O)CC6)C5)C4)cc13)COC2 [Example C22] | 73 |
| CN(c1nc(-c2ccc(F)cc2)c(C#N)s1)c1c2c(nc3c(F)cc(N4CCN(CC(=O)N5CC(O)C5)CC4)cc13)C(=O)CC2 [Example E2] | 3.46 |
| CN(c1nc(-c2ccc(F)cc2)c(C#N)s1)c1c2c(nc3c(F)cc(N4CC5(CN(C(=O)[C@H]6CCOC6)C5)C4)cc13)C(=O)CC2 [Example E3] | 30.7 |
| CN(c1nc(-c2ccc(F)cc2)c(C#N)s1)c1c2c(nc3c(F)cc(N4CC5(CN(C(=O)[C@@H]6CCOC6)C5)C4)cc13)C(=O)CC2 [Example E4] | 24.5 |
| CN(c1nc(-c2ccc(F)cc2)c(C#N)s1)c1c2c(nc3c(F)cc(N4CC5(CN(C(=O)C6CCOC6)C5)C4)cc13)C(O)CC2 (stereo not shown) [Example E5] | 21.8 |
| CN(c1nc(-c2ccc(F)cc2)c(C#N)s1)c1c2c(nc3c(F)cc(N4CC5(CN(CC(=O)N6CCCC6)C5)C4)cc13)C(O)CC2 (stereo not shown) [Example E11] | 35.7 |
| CN(c1nc(-c2ccc(F)cc2)c(C#N)s1)c1c2c(nc3c(F)cc(N4CC5(CN(CC(=O)N6CC[C@H](O)C6)C5)C4)cc13)C(O)CC2 (stereo partly shown) [Example E12] | 97.6 |
| CN(c1nc(-c2ccc(F)cc2)c(C#N)s1)c1c2c(nc3c(F)cc(N4CC5(CN(C(=O)[C@@H]6CCOC6)C5)C4)cc13)C(O)CC2 (stereo partly shown) [Example E13] | 23.5 |
| CN(c1nc(-c2ccc(F)cc2)c(C#N)s1)c1c2c(nc3c(F)cc(N4CC5(CN(C(=O)C6(O)CCOC6)C5)C4)cc13)C(O)CC2 (stereo not shown) [Example E19] | 20.4 |
| CN(c1nc(-c2ccc(F)cc2)c(C#N)s1)c1c2c(nc3c(F)cc(N4CC5(CN(C(=O)C6COCC6O)C5)C4)cc13)C(O)CC2 (stereo not shown) [Example E20] | 23.5 |
| CN(c1nc(-c2ccc(F)cc2)c(C#N)s1)c1c2c(nc3c(F)cc(N4CCN(CC(=O)NO)CC4)cc13)CC2 [Example F1] | 44.9 |
| CN(c1nc(-c2ccc(F)cc2)c(C#N)s1)c1c2c(nc3c(F)cc(N4CCN(CC(=O)N5CC6(CC(O)C6)C5)CC4)cc13)CC2 [Example F2] | 65.2 |

Reference: patent publication US20250051321A1, “TRICYCLIC DERIVATIVE AND PREPARATION METHOD THEREFOR AND APPLICATION THEREOF” (SHANGHAI JEMINCARE PHARMACEUTICAL CO., LTD., priority 2021, published 2025)
